Non-standard residues stand in square brackets, D forms with d. Residues, ends and D or L forms follow the SMILES beside them. *: point of attachment. Dibenzylacetyl = O=C(C(Cc1ccccc1)Cc1ccccc1)*; tBuAla = CC(C)(C)C[C@H](N)C(=O)O; αMeL = CC(C)C[C@](C)(N)C(=O)O; Morpholide = C1CN(*)CCO1; Pyrrolidide = C1CCN(*)C1; Nva = CCC[C@H](N)C(=O)O; NHBn = c1ccc(CN*)cc1

What is called IC50 is the concentration needed to halve the response being measured. Read a high IC50 as weaker potency.

Experiment [1] is described as follows: The compound was tested in vitro for inhibitory activity against Herpes Simplex Virus type 2 ribonucleotide reductase. The arrangement: species or system Human alphaherpesvirus 2.
The nature of experiment [2]: Inhibitory activity of YAGAVVNDL against Herpes Simplex Virus type 2 (HSV-2) ribonucleotide reductase determined as control. Details: species or system Human alphaherpesvirus 2.
Experiment [3] relates to Human alphaherpesvirus 2. Description: Relative potency to that of YAGAVVNDL against Herpes Simplex Virus type 2 ribonucleotide reductase.

`CC(C)C[C@H](NC(=O)[C@H](CC(=O)O)NC(=O)[C@H](CC(N)=O)NC(=O)[C@@H](NC(=O)[C@@H](NC(=O)CCc1ccc(O)cc1)C(C)C)C(C)C)C(=O)O`: the IC50 stood at 21 µM in experiment [1] and 20 µM in experiment [2]. The same molecule showed a Relative potency in experiment [3] of 1.
With `CC(C)C[C@H](NC(=O)[C@H](CC(=O)O)NC(=O)[C@H](CC(N)=O)NC(=O)[C@@H](NC(=O)[C@@H](NC(=O)C(C)(C)C)C(C)C)C(C)C)C(=O)O`, the IC50 was 21 µM in experiment [1] and 5 µM in experiment [2]. Moreover, the Relative potency in experiment [3] came out at 0.24.
On to `CCC[C@H](NC(=O)[C@H](CC(=O)O)NC(=O)[C@H](CC(N)=O)NC(=O)[C@@H](NC(=O)[C@@H](NC(=O)[C@@H](N)Cc1ccc(O)cc1)C(C)C)C(C)C)C(=O)O` (H-YVVND[Nva]-OH), for which the values for the half-maximal inhibitory concentration (IC50) in experiment [1] and in experiment [2] were 160 µM and 25 µM, respectively. The Relative potency in experiment [3] was found to be 0.16.
Take `CNC(=O)C[C@H](NC(=O)[C@@H](NC(=O)[C@@H](NC(=O)[C@@H](N)Cc1ccc(O)cc1)C(C)C)C(C)C)C(=O)N[C@@H](CC(=O)O)C(=O)N[C@@H](CC(C)C)C(=O)O` (H-YVVD(NHMe)DL-OH): the IC50 in experiment [1] turned out to be 2 µM; in experiment [2] it was 21 µM. Also, the Relative potency in experiment [3] was determined as 11.
In the case of `CC(C)[C@H](NC(=O)[C@@H](NC(=O)[C@@H](N)Cc1ccc(O)cc1)C(C)C)C(=O)N[C@@H](CC(N)=O)C(=O)N[C@@H](CC(=O)O)C(=O)N[C@@H](CC(C)(C)C)C(=O)O` (H-YVVND[tBuAla]-OH), the IC50 in experiment [1] is 13 µM; in experiment [2], 43 µM. In addition, in experiment [3], the Relative potency amounted to 3.3.
In the same order, the values of `CC(C)C[C@H](NC(=O)[C@H](CC(=O)O)NC(=O)[C@H](CC(=O)N1CCCC1)NC(=O)[C@@H](NC(=O)[C@@H](NC(=O)[C@@H](N)CC(=O)O)C(C)C)C(C)C)C(=O)O` (H-DVVD(Pyrrolidide)DL-OH) are 1 µM, 32 µM and 32.
Regarding `CC(C)C[C@H](NC(=O)[C@H](CC(=O)O)NC(=O)[C@H](CC(=O)NCc1ccccc1)NC(=O)[C@@H](NC(=O)[C@@H](NC(=O)C(Cc1ccccc1)Cc1ccccc1)C(C)C)C(C)C)C(=O)O` (Dibenzylacetyl-VVD(NHBn)DL-OH), the IC50 in experiment [1] was 0.4 µM; in experiment [2] it was 22 µM. In experiment [3], this molecule had a Relative potency of 55.
As for `CC(C)C[C@H](NC(=O)[C@H](CC(=O)O)NC(=O)[C@H](CC(=O)N(C)C)NC(=O)[C@@H](NC(=O)[C@@H](NC(=O)[C@@H](N)Cc1ccc(O)cc1)C(C)C)C(C)C)C(=O)O` (H-YVVD(NMe2)DL-OH), the IC50 in experiment [1] was found to be 0.3 µM; in experiment [2], 27 µM. For the same molecule, in experiment [3], the Relative potency turned out to be 90.
For the molecule `CC(C)C[C@H](NC(=O)[C@H](CC(=O)O)NC(=O)[C@H](CC(=O)N1CCOCC1)NC(=O)[C@@H](NC(=O)[C@@H](NC(=O)[C@@H](N)Cc1ccc(O)cc1)C(C)C)C(C)C)C(=O)O` (H-YVVD(Morpholide)DL-OH), the IC50 in experiment [1] worked out at 0.6 µM; in experiment [2], 22 µM. The molecule further yielded a Relative potency in experiment [3] of 36.
Take `CC(C)C[C@H](NC(=O)[C@H](CC(=O)O)NC(=O)[C@H](CC(N)=O)NC(=O)[C@@H](NC(=O)[C@@H](NC(=O)C(Cc1ccccc1)Cc1ccccc1)C(C)C)C(C)C)C(=O)O`: the IC50 was 0.5 µM in experiment [1] and 19 µM in experiment [2]. Also, in experiment [3], the Relative potency amounted to 38.
In the same order, the values of `CC(C)C[C@H](NC(=O)[C@H](CC(=O)O)NC(=O)[C@H](CC(N)=O)NC(=O)[C@@H](NC(=O)[C@@H](NC(=O)N(Cc1ccccc1)Cc1ccccc1)C(C)C)C(C)C)C(=O)O` are 11 µM, 24 µM and 2.2.
In the same order, the values of `CC(C)C[C@](C)(NC(=O)[C@H](CC(=O)O)NC(=O)[C@H](CC(N)=O)NC(=O)[C@@H](NC(=O)[C@@H](NC(=O)[C@@H](N)Cc1ccc(O)cc1)C(C)C)C(C)C)C(=O)O` (H-YVVND[αMeL]-OH) are 320 µM, 38 µM and 0.12.
